# Where two headings read alike, the source gives them in different places.
# Columns and labels:
# [1] = tested on: nAChR; conditions: cited from earlier work
# [2] = tested on: Torpedo marmorata nicotinic acetylcholine receptor (nAChR); experiment: nAChR/microsphere-based inhibition assay; type: binding; conditions: for Interference with the Luminex nAChR-based assay: restated in discussion, concentration not given there; for IC50 expressed as level in shellfish meat: assuming 100% recoveries
# [3] = target: Torpedo marmorata nicotinic acetylcholine receptor (Torpedo marmorata) (UniProt P02711); experiment: […]
# [4] = type: physicochemical; conditions: for % Recovery (toxin detected after storage versus freshly analyzed samples): 7 ng/ml, 4 weeks
# [5] = tested on: nAChR; conditions: chemiluminescence assay; cited from earlier work
# [6] = tested on: mice; conditions: cited from earlier work; for LD50: fed to fasted mice; for oral LD50: mice
# [7] = tested on: nAChR; conditions: fluorescence polarization assay; cited from earlier work
# [8] = tested on: mice; conditions: fed to fasted mice, from reported LD50
# [9] = tested on: Lymnaea stagnalis acetylcholine binding protein (Ls-AChBP); experiment: Ls-AChBP/microsphere-based inhibition assay; conditions: buffer
# [10] = target: Acetylcholine binding protein from Lymnaea stagnalis (Lymnaea stagnalis, UniProt P58154 20-229); experiment: […]
# Acetylcholine binding protein from Lymnaea stagnalis, sequence (P58154 20-229): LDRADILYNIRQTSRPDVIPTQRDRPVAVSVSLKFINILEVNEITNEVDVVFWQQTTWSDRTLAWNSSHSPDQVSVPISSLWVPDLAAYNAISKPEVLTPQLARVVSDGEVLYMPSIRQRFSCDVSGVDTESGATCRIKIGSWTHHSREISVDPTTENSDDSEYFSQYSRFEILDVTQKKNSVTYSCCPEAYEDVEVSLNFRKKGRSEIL
# Torpedo marmorata nicotinic acetylcholine receptor (Torpedo marmorata), sequence (P02711 whole entry, looked up): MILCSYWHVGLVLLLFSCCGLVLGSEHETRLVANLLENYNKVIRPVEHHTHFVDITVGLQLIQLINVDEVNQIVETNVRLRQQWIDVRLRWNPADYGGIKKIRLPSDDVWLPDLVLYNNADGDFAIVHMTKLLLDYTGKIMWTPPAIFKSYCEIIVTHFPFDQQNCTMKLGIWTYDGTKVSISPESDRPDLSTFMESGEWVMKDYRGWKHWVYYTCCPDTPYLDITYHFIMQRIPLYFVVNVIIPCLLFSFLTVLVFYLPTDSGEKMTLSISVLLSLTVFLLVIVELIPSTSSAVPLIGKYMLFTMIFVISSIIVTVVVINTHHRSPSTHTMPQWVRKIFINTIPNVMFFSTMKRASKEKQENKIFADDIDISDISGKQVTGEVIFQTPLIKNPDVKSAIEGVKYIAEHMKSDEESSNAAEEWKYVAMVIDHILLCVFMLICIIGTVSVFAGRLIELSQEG
molecule,measurement,setting,value
C=C1[C@@H](O)[C@@H]2O[C@]3(CC[C@H](/C=C/[C@@H](C)[C@@H]4CC(C)=C[C@@]5(O[C@H](C[C@@](C)(O)C(=O)O)CC[C@H]5O)O4)O3)CC[C@H]2O[C@@H]1[C@@H](O)C[C@H](C)[C@H]1O[C@@]2(CCCCO2)CC[C@H]1C [okadaic acid],Interference with nAChR based assays,[1]; previous studies,not shown any interferences
same,Interference with the nAChR-based assay (maximum and minimum binding signals),[2]; 10 μM,no effects on maximum and minimum binding signals
same,Interference with the Luminex nAChR-based assay,[2],do not interfere
Biotin-α-bungarotoxin (peptide),maximum binding signal to background ratio,[3],500
azaspirazid-1,Interference with the nAChR-based assay (maximum and minimum binding signals),[2]; 1 μM,no effects on maximum and minimum binding signals
same,Interference with the Luminex nAChR-based assay,[2],do not interfere
C=C1CCCC2=NCC(C)C(C)CC23CCC(C2C=C(C)C(=O)O2)=C(C)C3/C=C(/C)C(O)CC2CCC3(CCC4(OC(CCC4(C)O)C1)O3)O2 (centres unmarked) [13-desmethyl spirolide C],% Recovery (toxin detected after storage versus freshly analyzed samples),"[4]; buffer (PBS-BT/20% EtOH), 4–8 °C",109 ± 6%
same,% Recovery (toxin detected after storage versus freshly analyzed samples),"[4]; buffer (PBS-BT/20% EtOH), −20 °C",98.1 ± 6.3%
same,% Recovery (toxin detected after storage versus freshly analyzed samples),"[4]; mussel extract, 4–8 °C",135 ± 23%
same,% Recovery (toxin detected after storage versus freshly analyzed samples),"[4]; mussel extract, −20 °C",121 ± 16%
same,% Recovery (toxin detected after storage versus freshly analyzed samples),"[4]; scallop extract, 4–8 °C",92.0 ± 9.2%
same,% Recovery (toxin detected after storage versus freshly analyzed samples),"[4]; scallop extract, −20 °C",85.5 ± 5.5%
same,% of toxin recovered after storage in mussel homogenate,"[4]; spiked mussel homogenate, two weeks, −20 °C",105.7 ± 5.3%
same,IC50,[5],35 nM
same,LD50,[6],0.5 mg/kg
same,oral LD50,[6]; administered with food,500 Wg/kg
same,oral LD50,[6]; by gavage,160 Wg/kg
same,IC50,[7],100 nM
same,IC50,[2],10 nM
same,IC20,[2]; buffer,0.2 ± 0.04 ng/mL
same,IC50,[2]; buffer,7.4 ± 0.7 ng/mL
same,IC50,"[2]; buffer (PBS-BT/20% EtOH), n = 8",10.8 ± 0.9 nM
same,IC20,[2]; clam extract,0.3 ± 0.01 ng/mL
same,IC50,[2]; clam extract,10.3 ± 1.4 ng/mL
same,IC80,[2]; clam extract,160 ± 6 ng/mL
same,IC50 expressed as level in shellfish meat,[2]; clam extract,411.6 ± 54.8 Wg/kg
same,IC50,"[2]; clam extract, n = 2",14.9 ± 1.9 nM
same,IC20,[2]; mussel extract,0.4 ± 0.1 ng/mL
same,IC50,[2]; mussel extract,11.3 ± 1.1 ng/mL
same,IC80,[2]; mussel extract,160 ± 8 ng/mL
same,IC50 expressed as level in shellfish meat,[2]; mussel extract,451.3 ± 42.4 Wg/kg
same,IC50,"[2]; mussel extract, n = 6",16.3 ± 1.5 nM
same,Detection efficiency of 13-desmethyl spirolide C relative to gymnodimine,"[2]; nAChR assay, buffer",24 times
same,IC20,"[2]; read-out: IC20 (nM), lower end of dynamic range, buffer",0.4 ± 0.07 nM
same,IC20,"[2]; read-out: IC20 (nM), lower end of dynamic range, clam extract",0.5 ± 0.01 nM
same,IC20,"[2]; read-out: IC20 (nM), lower end of dynamic range, mussel extract",0.6 ± 0.2 nM
same,IC20,"[2]; read-out: IC20 (nM), lower end of dynamic range, scallop extract",0.5 ± 0.2 nM
same,IC80,"[2]; read-out: IC80 (nM), upper end of dynamic range, clam extract",231 ± 23 nM
same,IC80,"[2]; read-out: IC80 (nM), upper end of dynamic range, mussel extract",232 ± 11 nM
same,IC80,"[2]; read-out: IC80 (nM), upper end of dynamic range, scallop extract",201 ± 9 nM
same,IC20,[2]; scallop extract,0.4 ± 0.2 ng/mL
same,IC50,[2]; scallop extract,8.6 ± 1.5 ng/mL
same,IC80,[2]; scallop extract,139 ± 6.5 ng/mL
same,IC50 expressed as level in shellfish meat,[2]; scallop extract,344.2 ± 60.3 Wg/kg
same,IC50,"[2]; scallop extract, n = 5",12.4 ± 2.2 nM
azaspiracid-2,Interference with nAChR based assays,[1]; previous studies,not shown any interferences
brevetoxin-2,Interference with nAChR based assays,[1],not shown any interferences
C/C(=C/C=C/[C@@H](C)C(=O)O)[C@H]1CN[C@H](C(=O)O)[C@H]1CC(=O)O [domoic acid],Interference with the nAChR-based assay (maximum and minimum binding signals),[2]; 10 μM,no effects on maximum and minimum binding signals
same,Interference with the Luminex nAChR-based assay,[2],do not interfere
20-methyl spirolide G,oral LD50,[6]; administered with food,500 Wg/kg
same,oral LD50,[6]; by gavage,160 Wg/kg
same,Cross-reactivity (IC50 of 13-desmethyl spirolide C / IC50 of cyclic imine x 100),"[2]; nAChR assay, buffer",95%
"CC1=C[C@@H](C2=C(C)[C@@H]3/C=C(\C)[C@@H](O)CC[C@@H]4C[C@@H](C)[C@@H](O4)/C(C)=C/CCC4=NCCC[C@@]43CC2)OC1=O [gymnodimine, Gymnodimine]",Times less toxic than 13-desmethyl spirolide C,[8],> 15 times
same,Assay efficiency for gymnodimine relative to 13-desmethyl spirolide C,[9],14 fold
same,LD50,[6],> 7.5 mg/kg
C=CCC(=C)/C=C/[C@@](C)(O)[C@H]1O[C@@H]2C[C@@H]3O[C@@H]4C[C@@H]5O[C@@H]6C[C@@H]7O[C@@H]8C[C@@H]9O[C@@H]%10C[C@@H]%11O[C@](C)(CCOS(=O)(=O)O)[C@@H](OS(=O)(=O)O)C[C@H]%11O[C@H]%10C[C@H]9O[C@H]8CC[C@@]7(C)O[C@@]6(C)CC[C@H](C)[C@H]5O[C@H]4C[C@@]3(C)O[C@H]2CC1=C [yessotoxin],Interference with nAChR based assays,[1]; previous studies,not shown any interferences
same,Interference with the nAChR-based assay (maximum and minimum binding signals),[2]; 5 μM,no effects on maximum and minimum binding signals
same,Interference with the Luminex nAChR-based assay,[2],do not interfere
Biotin-α-bungarotoxin (peptide) IVCHTTATSPISAVTCPPGENLCYRKMWCDAFCSSRGKVVELGCAATCPSKKPYEEVTCCSTDKCNPHPKQRPG,maximum binding signal to background ratio,[10],~2000

# Source: PMC3597463 (Analytical chemistry, 2013)
